{"source": "paper PMC11280037", "about": "“Inhibition of Enzyme and Bacteria Activities in Diabetic Ulcer-like Scenarios via WAAPV-Loaded Electrospun Fibers” (Pharmaceutics, 2024)", "key": {"[1]": {"format": "physicochemical", "experimental": "Thermal responses of the fibers were assessed by a thermogravimetric analysis (TGA). Weight loss was monitored as the temperature increased from 25 to 600 °C at a heating rate of 10 °C/min under a dynamic nitrogen atmosphere with a flow rate of 200 mL/min, using an STA 7200 instrument (Hitachi®, Fukuoka, Japan) and aluminum pans. Results were plotted as the percentage of weight loss vs. temperature. Water contact angles were determined using an OCA 200 goniometer, Data Physics (Filderstadt, Germany), following an adaptation of the ASTM-[…]-08 standard. Droplets of 5.0 μL of dH2O, ejected at a rate of 2.0 μL/s, were used to measure the fibers' wettability via the sessile drop method. Six measurements were conducted per type of sample. Angles were recorded immediately after drop contact with the surface (≈10 s after contact)."}, "[2]": {"format": "physicochemical", "conditions": "not told", "experimental": "The fibers’ capacity for air exchange (permeability) was examined according to standard ISO 9237 [24]. Air pressure of 200 Pa was applied on three samples of each typology in three randomly selected points of 1.33 cm^2 (1.30 cm diameter), and the permeability was measured. For determining the porosity (P%) of the samples [25], measurements of the amount of ethanol absorbed after 1 h of immersion in static conditions and RT (Equation (1)) were used:(1) P(%)=Ww−WD/ρEthanolVSample×100, where WW and WD are the weight of the wet and dry samples, respectively; ρethanol is the density of the ethanol at RT (0.789 g/cm^3); and Vsample is the volume of the wet sample, determined by measuring the 6 mm diameter samples’ thickness with a pachymeter. The experiment was performed in triplicate."}, "[3]": {"system": "Staphylococcus aureus ATCC 6538", "format": "cell-based", "conditions": "ATCC 6538, 24 h", "experimental": "Minimum inhibitory concentration (MIC) of both peptides and PEG was determined, against S. aureus and E. coli by the broth microdilution method, based on a publication by the Clinical and Laboratory Standards Institute (CLSI) and European Committee on Antimicrobial Susceptibility Testing (EUCAST). For this test, AAPV and WAAPV were dissolved in dH2O at a concentration of 4.096 mg/mL, whereas PEG was also diluted in dH2O at 10.240 mg/mL, working as stock solutions. […] Then, a bacterium suspension at 1 × 10^6 CFUs/mL was added to the wells. Controls consisting of MHB and bacteria suspensions free from any of the active agents were produced, representing the negative and positive control samples, respectively. Absorbance readings were conducted with an EZ Read 2000 Microplate Reader at 600 nm before (0 h) and 24 h after incubation at 37 °C at 120 rpm. MIC was then perceived by the differences between the several absorbance readings. Minimum bactericidal concentrations (MBCs) were established by the culture of the same bacterium suspensions at MIC and their vicinities (dilutions before and after MIC value). Aliquots were collected and diluted in PBS (10^−1–10^−4). Then, the aliquots were plated in TSA and incubated at 37 °C during 24 h, after which the grown colonies were observed and counted."}, "[4]": {"system": "HNE", "conditions": "AAPV from co-axial wet-spun microfibers; cited from earlier work", "experimental": "During the first 6 h of incubation, nearly 10% of HNE was inhibited by the peptide released from the PCL fibers. This is consistent with the data from Figure 5 since, at this point, >50% of the peptide molecules have been released. In fact, in the absence of PEG, HNE inhibition reached its maximum at this stage, maintaining the levels of enzyme activity in a constant manner until the 24 h period. […] However, considering its hydrophobic nature and affinity towards PCL, it i ..."}, "[5]": {"system": "human neutrophil elastase (HNE; elastase from human leukocytes)", "conditions": "1 h, 37 °C, 405 nm, n = 3, cited from earlier work", "experimental": "Table 1 Inhibition of HNE activity by AAPV [8] and WAAPV at varying concentrations (n = 3). | column: HNE Inhibition (%) / AAPV || AAPV presented its maximum inhibitory capacity at a concentration of 50 μg/mL, which is in accordance with previous research conducted by our team. According to Namjoshi et al., the ability of HNE to digest substrates decreases with increasing inhibitor concentrations. […] Suc ..."}, "[6]": {"system": "bacteria", "conditions": "effectiveness limited to concentrations over this; cited from earlier work", "excerpt": "Despite its efficacy, the widespread pharmaceutical application of peptides faces obstacles, including limited stability in physiological settings and susceptibility to environmental factors. However, AAPV’s overall hydrophilicity (despite the presence of hydrophobic domains) tends to reduce its bioavailability and cellular tissue permeability. The attachment of hydrophobic carriers/molecules can overcome these limitations. Tryptophan (W) is an aromatic hydrophobic amino acid, which has been associated with the activation of antibacterial properties (disturbance of bacterial membra ..."}, "[7]": {"conditions": "cited from earlier work", "excerpt": "Static contact angle measurements are a conventional method to determine the wettability of surfaces. This method involves assessing the angle formed between the solid surface, the liquid droplet, and the vapor phase at the three-phase contact point. […] Electrospun fibers unlo ..."}, "[8]": {"system": "human neutrophil elastase (HNE)", "experiment": "HNE inhibition by peptide-loaded electrospun fibers", "format": "biochemical", "conditions": "AAPV from PCL electrospun fibers, PBS, 37 °C"}, "[9]": {"system": "S. aureus", "conditions": "loaded at the core of co-axial microfibers; cited from earlier work", "experimental": "From the very first moments of incubation, PEG-containing fibers were the ones reporting the highest bacterial inhibitions, a minimum of ≈30% against S. aureus and ≈40% against E. coli. […] In general, the highest ratings for peptide-induced inhibition (in many instances potentiated by PEG) were ..."}}, "note": "Read-outs that look alike come from different tables or passages of the source. Where a SMILES comes first, the peptide text is derived from it. Where no end group is shown, it is not given here."}
{"compound": "CC(C)[C@H](NC(=O)[C@@H]1CCCN1C(=O)[C@H](C)NC(=O)[C@H](C)N)C(=O)O", "note": "(H-AAPV-OH)", "values": [{"measurement": "main degradation step of free peptide", "value": 200, "unit": "°C"}]}
{"compound": "polycaprolactone [PCL]", "values": [{"measurement": "mass loss before main degradation step", "setting": "[1]", "value": "< 4", "unit": "%"}, {"measurement": "temperature at which (main) thermal degradation starts", "setting": "[1]", "value": "≈ 370 °C"}, {"measurement": "temperature range of main thermal degradation", "setting": "[1]", "value": "370-435 °C"}, {"measurement": "Air Permeability", "setting": "[2]", "value": "0.523 ± 0.057", "unit": "L/min"}]}
{"compound": "WAAPV [PCL + WAAPV]", "values": [{"measurement": "mass loss before main degradation step", "setting": "[1]", "value": "< 4", "unit": "%"}, {"measurement": "temperature at which (main) thermal degradation starts", "setting": "[1]", "value": "≈ 365 °C"}]}
{"compound": "H-WAAPV-OH", "values": [{"measurement": "main degradation step of free peptide", "value": 200, "unit": "°C"}]}
{"compound": "WAAPV [WAAPV]", "values": [{"measurement": "MBC", "setting": "[3]", "value": 2048, "unit": "µg/mL"}, {"measurement": "MIC", "setting": "[3]", "value": 2048, "unit": "µg/mL"}]}
{"compound": "CC(C)[C@H](NC(=O)[C@@H]1CCCN1C(=O)[C@H](C)NC(=O)[C@H](C)N)C(=O)O", "note": "[PCL + AAPV] (H-AAPV-OH)", "values": [{"measurement": "mass loss before main degradation step", "setting": "[1]", "value": "~8", "unit": "%"}, {"measurement": "temperature at which (main) thermal degradation starts", "setting": "[1]", "value": "≈ 335 °C"}]}
{"compound": "CC(C)[C@H](NC(=O)[C@@H]1CCCN1C(=O)[C@H](C)NC(=O)[C@H](C)N)C(=O)O", "note": "[AAPV, alanine–alanine–proline–valine] (H-AAPV-OH)", "values": [{"measurement": "time of maximum HNE inhibition", "setting": "[4]", "value": 24, "unit": "h"}, {"measurement": "HNE Inhibition", "setting": "[5]; AAPV 0.10 μg/mL", "value": "0.79 ± 0.008", "unit": "%"}, {"measurement": "HNE Inhibition", "setting": "[5]; AAPV 0.20 μg/mL", "value": "2.37 ± 0.007", "unit": "%"}, {"measurement": "HNE Inhibition", "setting": "[5]; AAPV 0.39 μg/mL", "value": "3.43 ± 0.005", "unit": "%"}, {"measurement": "HNE Inhibition", "setting": "[5]; AAPV 0.78 μg/mL", "value": "4.07 ± 0.004", "unit": "%"}, {"measurement": "HNE Inhibition", "setting": "[5]; AAPV 1.56 μg/mL", "value": "6.43 ± 0.005", "unit": "%"}, {"measurement": "HNE Inhibition", "setting": "[5]; AAPV 3.13 μg/mL", "value": "8.07 ± 0.007", "unit": "%"}, {"measurement": "HNE Inhibition", "setting": "[5]; AAPV 6.25 μg/mL", "value": "8.84 ± 0.002", "unit": "%"}, {"measurement": "HNE Inhibition", "setting": "[5]; AAPV 12.50 μg/mL", "value": "9.56 ± 0.011", "unit": "%"}, {"measurement": "HNE Inhibition", "setting": "[5]; AAPV 25.00 μg/mL", "value": "12.69 ± 0.002", "unit": "%"}, {"measurement": "HNE Inhibition", "setting": "[5]; AAPV 50.00 μg/mL", "value": "16.89 ± 0.010", "unit": "%"}, {"measurement": "HNE Inhibition", "setting": "[5]; AAPV 100.00 μg/mL", "value": "9.53 ± 0.010", "unit": "%"}, {"measurement": "HNE Inhibition", "setting": "[5]; AAPV 200.00 μg/mL, substrate N-MeO-Suc-Ala-Ala-Pro-Val-p-NA, 0.1 M Tris-HCl, HNE 45 mU", "value": "5.74 ± 0.010", "unit": "%"}, {"measurement": "effective antimicrobial concentration", "setting": "[6]", "value": "over 2 mg/mL"}, {"measurement": "hydrophilicity of overall structure", "setting": "[7]", "value": "hydrophilic"}, {"measurement": "time of maximum HNE inhibition", "setting": "[8]", "value": 6, "unit": "h"}, {"measurement": "S. aureus inhibitory activity", "setting": "[9]", "value": "found to potentiate this inhibitory activity against S. aureus"}]}
